Laboratory results as given in patent publication US20250051375A1, “ANTI-HIV COMPOUNDS” (Gilead Sciences, Inc., priority 2023, published 2025).
Converted amounts (≈) assume the structure as drawn. Where two headings read alike, the source gives them in different places.

Experiments:
HIV-1 IIIB strain = assay: MT-4 HIV Wild Type Virus Infection Assay (IIIB Virus); assay type: cell-based; conditions: Human immunodeficiency virus 1, IIIB, MT4, 120 h, MT-4 cells acutely infected with HIV-1 IIIB, 5 day incubation, Cell-titer glo
How it was run: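 MT-4 cells at 2×10^6 cells/ml in RPMI/10% FBS were acutely infected with HIV-1 IIIB for 1 h at 37° C, diluted 25× and added to serially diluted compounds. After 5 days at 37° C, viability read by CellTiter-Glo luminescence; EC50 from dose-response curves.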

[1] = target: bovine intestinal alkaline phosphatase (Bos taurus (Bovine), UniProt P19111); assay: BiALP: conversion by bovine intestinal alkaline phosphatase; assay type: in vitro ADME; conditions: 2 μM substrate, 100 ng/mL iALP, Tris pH 7.8, 37° C., 60 minutes
How it was run: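 LC-MS (positive mode) quantified analyte/internal-standard peak area ratios, referenced to 2 μM parent product. This followed a 60 min, 37° C reaction of 2 μM substrate in Tris buffer pH 7.8 (1 mM MgCl2, 1 mM ZnCl2) containing 100 ng/mL iALP or buffer alone, run in triplicate.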

[2] = Intestinal S9 Assay (human GI S9); assay type: in vitro ADME; conditions: 1.0 mg/mL S9 protein; for half-life at 2 μM: human, TRIS pH 7.4, read-out: Human GI S9 T½; for Human GI S9 T½: 2 μM, TRIS pH 7.4
Procedure: (§1) Reagents. Stock solutions of test compounds in dimethyl sulfoxide (DMSO) having a final concentration of 10 mM were prepared and used in all experiments. Sekisui XenoTech (Kansas City, KS) provided pooled intestinal S9 fractions. All other chemicals were purchased from Sigma-Aldrich (St. Louis, MO) or VWR (West Chester, PA). Internal Standard/Quench (IS/Q) used to stop reactions was 100 nM labetalol in (by volume) formic acid (1%) and acetonitrile (99%).
(§2) Intestinal S9 Assay: For each test compound, an aliquot of the test compound was added to S9 stock diluted with TRIS buffer (100 mM TRIS, 1 mM ZnCl2, 1 mM MgCl2), pH 7.4, to obtain an incubation protein concentration of 1.0 mg/mL. The incubation was initiated by the addition of the substrate to the S9 reaction mixture to a final concentration of 2 μM. At 0, 10, 20, 30, 60 and 120 min, 25 μL aliquots of the reaction mixture were transferred to plates containing 225 μl of IS/Q solution. After quenching, the plates were centrifuged at 3000×g for 30 minutes. 150 μL aliquots of each supernatant were transferred to new plates and 150 μL water was added. Aliquots (10 μL) of the prepared samples were analyzed on a Thermo Q-Exactive mass spectrometer as described below.
(§3) Liquid Chromatography-Mass Spectrometry: Quantification of test compounds and control substrate was performed by analyte/internal standard peak area ratio (PAR) values measured on a Thermo Q-Exactive mass spectrometer coupled to a Dionex UltiMate 3000 HPLC with a Leap Technologies HTC PAL autosampler. The column used for analysis was a Thermo Scientific Hypersil GOLD (1.9 μm particle size, 50×2.1 mm). Mobile phase A consisted of 0.1% (v/v) formic acid in water. Mobile phase B consisted of 0.1% (v/v) formic acid in acetonitrile. Elution of analytes was achieved by a series of linear gradients varying the proportions of A and B. The mass spectrometer was calibrated on a weekly basis and mass tolerance of 5 ppm was used.
(§4) Data Analysis. Metabolic stabilities were determined by measuring the rates of disappearance of test compound and positive control substrate. Data (% of substrate remaining) were plotted on a semi-log scale and fitted using an exponential decline model:
(§5) where • Ct% of substrate remaining at time=t • C0% of substrate remaining at time=0 • t time • T½ half-life • The Half-life (T½) is determined by the following equation:
(§6) [formula] • Assuming a first-order reaction, the slope (k) is extrapolated from the aforementioned plotted data.

[3] = Intestinal S9 Assay (dog GI S9); assay type: in vitro ADME; conditions: dog, 1.0 mg/mL S9 protein, TRIS pH 7.4, read-out: Dog GI S9 T½
Procedure: as §1, §2, §3, §4, §5, §6

Solubility in FaSSIF = conditions: 23 °C, pH 6.5, fassif, thermodynamic from solid
How it was run: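 Concentration measured by HPLC-UV after solid compound was dosed at 5 mg/mL into pH 6.5 fasted-state simulated intestinal fluid containing taurocholate and lecithin (4:1 molar) and vortexed.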

Sequence of bovine intestinal alkaline phosphatase (P19111 20-506): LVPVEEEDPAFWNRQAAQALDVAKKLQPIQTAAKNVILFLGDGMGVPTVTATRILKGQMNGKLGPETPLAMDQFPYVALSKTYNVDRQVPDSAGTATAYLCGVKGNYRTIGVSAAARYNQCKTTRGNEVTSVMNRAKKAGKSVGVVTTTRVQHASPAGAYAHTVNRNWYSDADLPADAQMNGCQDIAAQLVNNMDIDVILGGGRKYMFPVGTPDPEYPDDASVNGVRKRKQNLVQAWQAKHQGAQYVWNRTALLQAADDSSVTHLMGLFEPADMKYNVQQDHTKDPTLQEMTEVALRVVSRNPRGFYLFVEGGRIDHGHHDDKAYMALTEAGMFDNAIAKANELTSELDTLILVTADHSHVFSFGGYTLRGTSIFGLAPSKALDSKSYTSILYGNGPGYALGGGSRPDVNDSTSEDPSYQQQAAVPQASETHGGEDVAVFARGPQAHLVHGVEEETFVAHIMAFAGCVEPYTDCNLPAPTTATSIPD

SMILES	EC50 (HIV-1 IIIB strain)	[Compound] [1]	half-life at 2 μM [2]	half-life at 2 μM [3]	solubility at 2 h (Solubility in FaSSIF)	Human GI S9 T½ [2]	EC50 (HIV-1 IIIB strain; read-out: EC50)	solubility (Solubility in FaSSIF; FaSSIF (pH 6.5) solubility, FaSSIF pH 6.5, dose 5 mg/mL, 2-hour incubation, ambient temperature)
COC(=O)N[C@H](C(=O)N[C@@H](Cc1ccc(C#Cc2cnc(N3CC4CCC(C3)N4C3COC3)nc2)cc1)[C@H](CN(Cc1c(F)cc(-c2ccn(C(F)F)n2)cc1F)NC(=O)[C@@H](NC(=O)OC)C(C)(C)C(F)(F)F)OC(=O)CC(C)(C)c1c(CC(=O)N2C[C@H]3[C@@H]([C@H]2C(=O)O)C3(C)C)cc(C)cc1OP(=O)(O)O)C(C)(C)C(F)(F)F [Example 47]	593 nM	1950.3 nM	6.39 h	7.34 h	3620 µg/mL (≈ 2230 µM)			
COC(=O)N[C@H](C(=O)N[C@@H](Cc1ccc(C#Cc2cnc(N3CC4CCC(C3)N4C3COC3)nc2)cc1)[C@H](CN(Cc1c(F)cc(-c2ccn(C(F)F)n2)cc1F)NC(=O)[C@@H](NC(=O)OC)C(C)(C)C(F)(F)F)OC(=O)CC(C)(C)c1c(CC(=O)N2[C@@H](C)CC[C@H]2C(=O)O)cc(C)cc1OP(=O)(O)O)C(C)(C)C(F)(F)F [Example 54]	94 nM	1661.6 nM	12.9 h	9.44 h	3080 µg/mL (≈ 1930 µM)			
COC(=O)N[C@H](C(=O)N[C@@H](Cc1ccc(C#Cc2cnc(N3CC4CCC(C3)N4C3COC3)nc2)cc1)[C@H](CN(Cc1c(F)cc(-c2ccn(C(F)F)n2)cc1F)NC(=O)[C@@H](NC(=O)OC)C(C)(C)C(F)(F)F)OC(=O)CC(C)(C)c1c(CC(=O)N2[C@H](C(=O)O)C[C@@H]3CCCC[C@@H]32)cc(C)cc1OP(=O)(O)O)C(C)(C)C(F)(F)F [Example 55]	3480 nM	1659.2 nM	12.7 h	12 h	< 1000 µg/mL			
COC(=O)N[C@H](C(=O)N[C@@H](Cc1ccc(C#Cc2cnc(N3CC4CCC(C3)N4C3COC3)nc2)cc1)[C@H](CN(Cc1c(F)cc(-c2ccn(C(F)F)n2)cc1F)NC(=O)[C@@H](NC(=O)OC)C(C)(C)C(F)(F)F)OC(=O)CC(C)(C)c1c(CC(=O)N2C[C@@H](O)C[C@H]2C(=O)O)cc(C)cc1OP(=O)(O)O)C(C)(C)C(F)(F)F [Example 56]	254 nM	1576.7 nM		6.89 h	2400 µg/mL (≈ 1500 µM)	13.2 h		
COC(=O)N[C@H](C(=O)N[C@@H](Cc1ccc(C#Cc2cnc(N3CC4CCC(C3)N4C3COC3)nc2)cc1)[C@H](CN(Cc1c(F)cc(-c2ccn(C(F)F)n2)cc1F)NC(=O)[C@@H](NC(=O)OC)C(C)(C)C(F)(F)F)OC(=O)CC(C)(C)c1c(CC(=O)N2CC[C@@H](O)[C@H]2C(=O)O)cc(C)cc1OP(=O)(O)O)C(C)(C)C(F)(F)F [Example 57]	290 nM	1612.8 nM	11 h	7.19 h	4100 µg/mL (≈ 2560 µM)			
COC(=O)N[C@H](C(=O)N[C@@H](Cc1ccc(C#Cc2cnc(N3CC4CCC(C3)N4C3COC3)nc2)cc1)[C@H](CN(Cc1c(F)cc(-c2ccn(C(F)F)n2)cc1F)NC(=O)[C@@H](NC(=O)OC)C(C)(C)C(F)(F)F)OC(=O)CC(C)(C)c1c(CC(=O)N2C[C@H](O)C[C@H]2C(=O)O)cc(C)cc1OP(=O)(O)O)C(C)(C)C(F)(F)F [Example 58]	370 nM	1573.2 nM	12.1 h	7.23 h	4460 µg/mL (≈ 2800 µM)			
COC(=O)N[C@H](C(=O)N[C@@H](Cc1ccc(C#Cc2cnc(N3CC4CCC(C3)N4C3COC3)nc2)cc1)[C@H](CN(Cc1c(F)cc(-c2ccn(C(F)F)n2)cc1F)NC(=O)[C@@H](NC(=O)OC)C(C)(C)C(F)(F)F)OC(=O)CC(C)(C)c1c(CC(=O)N2C[C@H](OC)C[C@H]2C(=O)O)cc(C)cc1OP(=O)(O)O)C(C)(C)C(F)(F)F [Example 59]	658 nM	1520.4 nM		6.67 h	3600 µg/mL (≈ 2230 µM)	13.2 h		
C=C1C[C@@H](C(=O)O)N(C(=O)Cc2cc(C)cc(OP(=O)(O)O)c2C(C)(C)CC(=O)O[C@@H](CN(Cc2c(F)cc(-c3ccn(C(F)F)n3)cc2F)NC(=O)[C@@H](NC(=O)OC)C(C)(C)C(F)(F)F)[C@H](Cc2ccc(C#Cc3cnc(N4CC5CCC(C4)N5C4COC4)nc3)cc2)NC(=O)[C@@H](NC(=O)OC)C(C)(C)C(F)(F)F)C1 [Example 60]		1457.7 nM	12 h	5.81 h			218 nM	3480 µg/mL (≈ 2190 µM)
COC(=O)N[C@H](C(=O)N[C@@H](Cc1ccc(C#Cc2cnc(N3CC4CCC(C3)N4C3COC3)nc2)cc1)[C@H](CN(Cc1c(F)cc(-c2ccn(C(F)F)n2)cc1F)NC(=O)[C@@H](NC(=O)OC)C(C)(C)C(F)(F)F)OC(=O)CC(C)(C)c1c(CC(=O)N2CC(C)(C)C[C@H]2C(=O)O)cc(C)cc1OP(=O)(O)O)C(C)(C)C(F)(F)F [Example 61]	1890 nM	1611.1 nM	11.7 h	11.2 h	2580 µg/mL (≈ 1600 µM)			
COC(=O)N[C@H](C(=O)N[C@@H](Cc1ccc(C#Cc2cnc(N3CC4CCC(C3)N4C3COC3)nc2)cc1)[C@H](CN(Cc1c(F)cc(-c2ccn(C(F)F)n2)cc1F)NC(=O)[C@@H](NC(=O)OC)C(C)(C)C(F)(F)F)OC(=O)CC(C)(C)c1c(CC(=O)Nc2cc(C#N)cc(C(=O)O)c2)cc(C)cc1OP(=O)(O)O)C(C)(C)C(F)(F)F [Example 63]	244 nM	1778.4 nM		6.37 h	495 µg/mL (≈ 304 µM)	13.2 h		
COC(=O)N[C@H](C(=O)N[C@@H](Cc1ccc(C#Cc2cnc(N3CC4CCC(C3)N4C3COC3)nc2)cc1)[C@H](CN(Cc1c(F)cc(-c2ccn(C(F)F)n2)cc1F)NC(=O)[C@@H](NC(=O)OC)C(C)(C)C(F)(F)F)OC(=O)CC(C)(C)c1c(CC(=O)N2CCC[C@H]2C(=O)O)cc(C)cc1OP(=O)(O)O)C(C)(C)C(F)(F)F [Example 79]	645 nM	2057.5 nM	10.2 h	9.38 h	2680 µg/mL (≈ 1690 µM)			
COC(=O)N[C@H](C(=O)N[C@@H](Cc1ccc(C#Cc2cnc(N3CC4CCC(C3)N4C3COC3)nc2)cc1)[C@H](CN(Cc1c(F)cc(-c2ccn(C(F)F)n2)cc1F)NC(=O)[C@@H](NC(=O)OC)C(C)(C)C(F)(F)F)OC(=O)CC(C)(C)c1c(CC(=O)NC23CC4CC(C2)CC(C(=O)O)(C4)C3)cc(C)cc1OP(=O)(O)O)C(C)(C)C(F)(F)F [Example 108]	444 nM	2296.1 nM	7.21 h	4.46 h	< 1000 µg/mL			
